{
  "source": "patent US11008622B2",
  "about": "“Biomarker for predicting sensitivity to EGFR-targeting agent, and use thereof” (THE ASAN FOUNDATION, priority 2014, dated 2021)",
  "key": {"[1]": {"tested_on": "EGFR", "assay": "EGFR phosphorylation by western blot after RON inhibition by siRNA", "type": "cell-based, human", "procedure": "In order to perform the western blot, a protein separated from each cell was separated through SDS-PAGE and transferred to polyscreen membranes (New England Nuclear, Boston, Mass., USA), reacted for 12 hours at 4° C. by using various antibodies (anti-phospho RON (MyBioSource, San Diego, Calif., USA), anti-phospho Tyrosine, anti-EGFR, anti-phospho EGFR (Cell signaling Technology, Beverly, Mass., USA), anti-RON, and anti-r-tubulin (Santa Cruz Biotechnology), and then washed with a 1×TBS-T buffer solution for 10 minutes three times. A suitable anti-rabbit-HRP or anti-mouse-HRP secondary antibody reacted for 2 hours at room temperature and was washed with the 1×TB S-T buffer solution for 10 minutes three times to verify the expression of the protein by using an ECL solution (Amersham, Buckinghamshire, UK).\nThe inventors verified the phosphorylation induction of the EGFR by performing the western blot, after artificially suppressing the RON by using a siRNA technique in the KM12C and HT29 colon cancer cell lines in which the RON was expressed and activated, in order to verify the change in activity of the EGFR protein by the activation of the RON protein. […]"}, "[2]": {"tested_on": "FZD4 and GPR101 genes", "assay": "Real-time PCR of EGFR transactivation-related genes after RON inhibition", "type": "cell-based, human", "settings": "KM12C, RON siRNA 48 hours; FIG. 1E", "procedure": "In order to perform the RT-PCR, Colo320HSR colon cancer cell line in which the RON was non-expressed was transfected with construct expressing the RONΔ160 as the RON active type form for 48 hours and KM12C colon cancer cell line in which the RON was activated was transfected with the RON siRNA for 48 hours. The RNA was extracted by using trizol (Cat.#15596-026, Life Technologies™), respectively. The extracted RNA was synthesized to cDNA by using a RT-PCR Kit (AccuPower RT PreMix, Bioneer). The difference in expression of the corresponding gene was verified by PCR (AccuPower PCRPreMix, Bioneer) by using the synthesized cDNA and a gene-specific primer and quantified by using a real-time PCR (LightCycler 480 SYBR Green, Roche).\nThe inventors analyzed the expression of the genes Adam11, Adam32, FZD4, GPER, and GPR101 associated with the EGFR transactivation with real-time PCR after artificially suppressing the RON activity by using an siRNA technique in the KM12C colon cancer cell line in which the RON was activated, in order to analyze the change aspect of the expression of the EGFR transactivation-related genes according to the RON inhibition."}},
  "data": [
    {"substance": "5′-ACUUUGUAGAGGAGUUUGAUU-3′ (listed as RNA, chemistry not given here) [RON siRNA]", "values": [
      {"measurement": "activity of the EGFR (phosphorylation)", "setting": "[1]; KM12C and HT29 colon cancer cell lines, FIG. 2B", "result": "decreased"},
      {"measurement": "phosphorylation of the EGFR induced by the EGF", "setting": "[1]; KM12C, by EGF ligand treating time, FIG. 2C", "result": "decreased"},
      {"measurement": "FZD4 gene expression", "setting": "[2]", "result": "significantly reduced"},
      {"measurement": "GPR101 gene expression", "setting": "[2]", "result": "significantly reduced"}
    ]}
  ]
}
